Experimental data published in ChEMBL document CHEMBL1687846, “Ex vivo activity of histone deacetylase inhibitors against multidrug-resistant clinical isolates of Plasmodium falciparum and P. vivax” (Antimicrob Agents Chemother, 2011).

Tests used:
[1] = system: Plasmodium falciparum; experiment: Antimalarial activity against Plasmodium falciparum assessed as parasites growth inhibition using giemsa staining after 24 to 56 hrs by microscopic analysis in presence of 10% human serum; type: functional, organism-based
[2] = system: Plasmodium vivax; experiment: Antimalarial activity against ring stage of Plasmodium vivax assessed as parasites growth inhibition using giemsa staining after 24 to 56 hrs by microscopic analysis in presence of 20% human serum; type: functional, organism-based
[3] = system: Plasmodium falciparum; experiment: Antimalarial activity against trophozoites stage of Plasmodium falciparum assessed as parasites growth inhibition using giemsa staining after 24 to 56 hrs by microscopic analysis in presence of 10% human serum; type: functional, organism-based
[4] = system: Plasmodium vivax; experiment: Antimalarial activity against Plasmodium vivax assessed as parasites growth inhibition using giemsa staining after 24 to 56 hrs by microscopic analysis in presence of 20% human serum; type: functional, organism-based
[5] = system: Plasmodium falciparum; experiment: Antimalarial activity against ring stage of Plasmodium falciparum assessed as parasites growth inhibition using giemsa staining after 24 to 56 hrs by microscopic analysis in presence of 10% human serum; type: functional, organism-based
[6] = system: Plasmodium vivax; experiment: Antimalarial activity against trophozoites stage of Plasmodium vivax assessed as parasites growth inhibition using giemsa staining after 24 to 56 hrs by microscopic analysis in presence of 20% human serum; type: functional, organism-based
[7] = system: Plasmodium falciparum; experiment: Antimalarial activity against chloroquine-sensitive Plasmodium falciparum 3D7 assessed as inhibition of [3H]hypoxanthine incorporation; type: functional, organism-based
[8] = system: Plasmodium falciparum; experiment: microbe, parasite or virus in culture; conditions: K1, 3 h
Description: Antimalarial activity against chloroquine-resistant Plasmodium falciparum K1 assessed as inhibition of [3H]hypoxanthine incorporation

| SMILES | IC50 [1] [nM] | IC50 [2] [nM] | IC50 [3] [nM] | IC50 [4] [nM] | IC50 [5] [nM] | IC50 [6] [nM] | IC50 [7] [nM] | IC50 [8] [nM] |
| --- | --- | --- | --- | --- | --- | --- | --- | --- |
| O=C(CCCCC[C@H](NC(=O)c1cc2ccccc2[nH]1)C(=O)Nc1cccc2cccnc12)NO | 266 | 327 | 467 | 278 | 238 | 214 |  |  |
| C[C@H]1[C@H](OC(=O)CCC(=O)O)O[C@@H]2O[C@@]3(C)CC[C@H]4[C@H](C)CC[C@@H]1[C@@]24OO3 [ARTESUNATE] | 0.92 | 0.75 | 1.19 | 0.74 | 0.88 | 0.39 | 2 | 1 |
| Clc1ccc2c(N3CCN(CCCN4CCN(c5ccnc6cc(Cl)ccc56)CC4)CC3)ccnc2c1 [PIPERAQUINE] | 10.8 | 15.5 |  | 13.2 |  | 15.9 | 3 | 11 |
| CCN(CC)Cc1cc(Nc2ccnc3cc(Cl)ccc23)ccc1O | 5 |  | 9.6 | 9.1 |  | 21.1 | 2 |  |
| CCN(CC)CCCC(C)Nc1ccnc2cc(Cl)ccc12 (configuration not stated) [CHLOROQUINE] |  |  |  | 40.4 |  | 841 |  |  |
| O=C(/C=C/c1ccccc1)N[C@@H](CCCCCC(=O)NO)C(=O)Nc1cccc2cccnc12 | 533 | 545 | 519 | 503 | 492 | 438 |  |  |
| OC(c1cc(C(F)(F)F)nc2c(C(F)(F)F)cccc12)C1CCCCN1 (configuration not stated) [MEFLOQUINE] | 6.3 | 9.2 |  | 7.7 |  | 10.2 |  |  |
